Experimental data taken from ChEMBL document CHEMBL5034018, “LXR-Mediated Regulation of Marine-Derived Piericidins Aggravates High-Cholesterol Diet-Induced Cholesterol Metabolism Disorder in Mice” (J Med Chem, 2021).
Blank lines part the entries; values can stand above or below the compound they belong to.

Key:
[1] = biological target: T1, Oxysterols receptor LXR-alpha (Homo sapiens, UniProt Q13133); test: Binding affinity to full-length human LXRalpha by surface plasmon resonance assay
T1 sequence (Q13133 whole entry): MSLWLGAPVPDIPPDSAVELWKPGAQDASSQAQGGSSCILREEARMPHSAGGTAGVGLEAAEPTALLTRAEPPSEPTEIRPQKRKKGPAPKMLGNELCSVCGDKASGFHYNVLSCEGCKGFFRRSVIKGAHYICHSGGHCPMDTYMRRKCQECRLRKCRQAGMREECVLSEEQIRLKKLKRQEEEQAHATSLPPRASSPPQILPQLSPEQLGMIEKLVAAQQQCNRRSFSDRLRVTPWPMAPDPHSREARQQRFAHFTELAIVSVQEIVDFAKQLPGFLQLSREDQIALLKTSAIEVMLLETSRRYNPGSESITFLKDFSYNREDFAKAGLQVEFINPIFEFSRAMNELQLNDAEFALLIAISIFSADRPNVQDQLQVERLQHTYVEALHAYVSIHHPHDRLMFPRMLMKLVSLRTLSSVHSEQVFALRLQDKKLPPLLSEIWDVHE

[2] = Induction of Cholesterol accumulation in human HepG2 cells assessed as fold increase in LDL-cholesterol level at 10 uM after 48 hrs; format: functional
[3] = Hepatotoxicity in renal carcinoma xenografted C57BL/6 mouse assessed as fold increase in plasma ALT at 0.8 mg/kg, ip; format: toxicity, organism-based; details: in vivo
[4] = Hepatotoxicity in renal carcinoma xenografted C57BL/6 mouse assessed as fold increase in plasma AST at 0.8 mg/kg, ip; format: toxicity, organism-based; details: in vivo

SMILES: O=C(O)Cc1cccc(OCCCN(Cc2cccc(C(F)(F)F)c2Cl)CC(c2ccccc2)c2ccccc2)c1
Kd [1]: 6.97 µM

Kd [1]: 7.22 µM
SMILES: C/C=C(\C)C(=O)[C@H](C)/C=C(C)/C=C/C/C(C)=C/Cc1nc(OC)c(OC)c(O)c1C

SMILES: CC(C)c1c(C(=O)Nc2ccccc2)c(-c2ccccc2)c(-c2ccc(F)cc2)n1CC[C@@H](O)C[C@@H](O)CC(=O)O [ATORVASTATIN]
fold change (FC) [2]: 2.4

SMILES: CNC(=O)c1cc(Oc2ccc(NC(=O)Nc3ccc(Cl)c(C(F)(F)F)c3)cc2)ccn1 [SORAFENIB]
fold change (FC) [3]: 4.3 | fold change (FC) [4]: 2.3
